The values below come from patent publication US7868013B2, “Cycloalkyl substituted pyrimidinediamine compounds and their uses” (Rigel Pharmaceuticals, Inc., priority 2004, dated 2011).

Structures are written as SMILES. Where a name gives a salt, the structure may show the parent alone.

One assay deals with A549 (lung carcinoma). In words: In vitro antiproliferation assay, A549 cells (TABLE 1 6 point assay; TABLE 2). The format is cell-based. The following applies: Homo sapiens, A549, A549 cells; 6 point assay; read-out: A549, 6pt (IC50, inhibition of proliferation). The method, then:
(§1) Certain compounds were tested against other cell types for their ability to inhibit proliferation in standard antiproliferation assays.

The subject of assay [1] is H1299 (non-small cell lung carcinoma). In words: In vitro antiproliferation assay, H1299 cells (TABLE 1 6 point assay; TABLE 2). The class given is cell-based. The conditions noted are these: Homo sapiens, NCI-H1299, H1299 cells; 6 point assay; read-out: H1299, 6pt (IC50, inhibition of proliferation). The procedure: as §1

As to `Cc1cc(Nc2ncc(F)c(N[C@H]3[C@@H](C(=O)NC(C)c4ccccc4)[C@@H]4C=C[C@H]3C4)n2)ccc1N1CCN(C)CC1` (stereo partly drawn) [compound 109, (1R,2R,3S,4S)-N4-5-Fluoro-N4-(3-(R)-alpha-methylbenzylaminocarbonylbicyclo[2.2.1]hept-5-en-2-yl)-N2-[3-methyl-4-(4-methylpiperazin-1-yl)phenyl]-2,4-pyrimidinediamine], the IC50 (with A549 (lung carcinoma); in assay [1]) was 100 to 1000 nM in each case.
With `Cc1cc(Nc2ncc(F)c(N[C@@H]3[C@H](C(=O)NC(C)c4ccccc4)[C@H]4C=C[C@@H]3C4)n2)ccc1N1CCN(C)CC1` (stereo partly drawn) [compound 110, (1S,2S,3R,4R)-N4-5-Fluoro-N4-(3-(R)-alpha-methylbenzylaminocarbonylbicyclo[2.2.1]hept-5-en-2-yl)-N2-[3-methyl-4-(4-methylpiperazin-1-yl)phenyl]-2,4-pyrimidinediamine], the IC50 (in the assay with A549 (lung carcinoma); in assay [1]) was 100 to 1000 nM throughout.
On to `Cc1ccc(Nc2ncc(F)c(N[C@H]3[C@@H](C(N)=O)[C@@H]4C=C[C@H]3C4)n2)cc1OCCN1CCOCC1` [compound 115, (1R,2R,3S,4S)-N4-(3-Aminocarbonylbicyclo[2.2.1]hept-5-en-2-yl)-5-fluoro-N2-[4-methyl-3-(2-morpholinoethyloxy)phenyl]-2,4-pyrimidinediamine], for which the IC50 (with A549 (lung carcinoma); in assay [1]) was at most 100 nM in each case.
`Cc1cc(Nc2ncc(F)c(N[C@H]3[C@@H](C(N)=O)[C@@H]4C=C[C@H]3C4)n2)ccc1N1CCN(CCO)CC1` [compound 116, (1R,2R,3S,4S)-N4-(3-Aminocarbonylbicyclo[2.2.1]hept-5-en-2-yl)-5-fluoro-N2-{4-[4-(2-hydroxyethyl)piperazin-1-yl]-3-methylphenyl}-2,4-pyrimidinediamine]: the IC50 (with A549 (lung carcinoma); in assay [1]) was at most 100 nM throughout.
For the compound `Cc1cc(Nc2ncc(F)c(N[C@H]3[C@@H](C(N)=O)[C@@H]4C=C[C@H]3C4)n2)ccc1N1CCN(C)CC1` [compound 121, (1R,2R,3S,4S)-N4-(3-Aminocarbonylbicyclo[2.2.1]hept-5-ene-2-yl)-5-fluoro-N2-[3-methyl-4-(4-methylpiperazin-1-yl)phenyl]-2,4-pyrimidinediamine Adipic Acid Salt], the IC50 (with A549 (lung carcinoma); in assay [1]) was at most 100 nM throughout.
On to `Cc1cc(Nc2ncc(F)c(N[C@H]3[C@@H](C(N)=O)[C@@H]4C=C[C@H]3C4)n2)ccc1N1CCN(C)CC1` [compound 122, (1R,2R,3S,4S)-N4-(3-Aminocarbonylbicyclo[2.2.1]hept-5-en-2-yl)-5-fluoro-N2-[3-methyl-4-(4-methylpiperazin-1-yl)phenyl]-2,4-pyrimidinediamine Tartaric Acid Salt], for which the IC50 (in the assay with A549 (lung carcinoma); in assay [1]) was at most 100 nM in each case.
For `Cc1cc(Nc2ncc(F)c(N[C@H]3[C@@H](C(N)=O)[C@@H]4C=C[C@H]3C4)n2)ccc1N(C1CC1)C1CCN(C)CC1` [compound 123, (1R,2R,3S,4S)-N4-(3-Aminocarbonylbicyclo[2.2.1]hept-5-en-2-yl)-5-fluoro-N2-{4-[N-cyclopropyl-(1-methylpiperidin-4-yl)]-3-methylphenyl}-2,4-pyrimidinediamine], the IC50 (with A549 (lung carcinoma); in assay [1]) was at most 100 nM throughout.
With `COc1ccc(C(C)NC(=O)[C@H]2[C@@H](Nc3nc(Nc4ccc(N5CCN(C)CC5)c(C)c4)ncc3F)[C@@H]3C=C[C@H]2C3)cc1` (stereo partly drawn) [compound 124, (1S,2S,3R,4R)-5-Fluoro-N4-(3-(R)-4-methoxy-alpha-methylbenzylaminocarbonylbicyclo[2.2.1]hept-5-en-2-yl]-N2-(3-methyl-4-(4-methylpiperazin-1-yl)phenyl]-2,4-pyrimidinediamine], the IC50 (in the assay with A549 (lung carcinoma); in assay [1]) was 100 to 1000 nM each time.
For `Cc1ccc(Nc2ncc(F)c(N[C@H]3[C@@H](C(N)=O)[C@@H]4C=C[C@H]3C4)n2)cc1OCC(=O)N1CCOCC1` [compound 125, (1R,2R,3S,4S)-N4-(3-Aminocarbonylbicyclo[2.2.1]hept-5-en-2-yl)-5-fluoro-N2-[4-methyl-3-(morpholin-4-ylcarbonylmethyleneoxy)phenyl]-2,4-pyrimidinediamine], the IC50 (in the assay on A549 (lung carcinoma); in assay [1]) was at most 100 nM in each case.
As to `CN1CCC(c2ccc(Nc3ncc(F)c(N[C@H]4[C@@H](C(N)=O)[C@@H]5C=C[C@H]4C5)n3)cc2)CC1` [compound 137, (1R,2R,3S,4S)-N4-(3-aminocarbonylbicyclo[2.2.1]hept-5-en-2-yl)-5-fluoro-N2-[4-(1-methylpiperidin-4-yl)phenyl]-2,4-pyrimidinediamine], the IC50 (with A549 (lung carcinoma); in assay [1]) was at most 100 nM each time.
In the case of `CN1CCC(c2cccc(Nc3ncc(F)c(N[C@H]4[C@@H](C(N)=O)[C@@H]5C=C[C@H]4C5)n3)c2)CC1` [compound 145, (1R,2R,3S,4S)-N4-(3-Aminocarbonylbicyclo[2.2.1]hept-5-en-2-yl)-5-fluoro-N2-[3-(1-methylpiperidin-4-yl)phenyl]-2,4-pyrimidinediamine Mono- Hydrochloric Acid Salt], the IC50 (with A549 (lung carcinoma); in assay [1]) was at most 100 nM throughout.
As for `CN1CCC(Oc2ccc(Nc3ncc(F)c(N[C@H]4[C@@H](C(N)=O)[C@@H]5C=C[C@H]4C5)n3)cc2)CC1` [compound 146, (1R,2R,3S,4S)-N4-(3-Aminocarbonylbicyclo[2.2.1]hept-5-en-2-yl)-5-fluoro-N2-[4-(1-methylpiperidin-4-yloxy)phenyl]-2,4-pyrimidinediamine], the IC50 (with A549 (lung carcinoma); in assay [1]) was at most 100 nM each time.
Consider `NC(=O)[C@@H]1[C@H](Nc2nc(Nc3ccc(OC(F)(F)F)c(Cl)c3)ncc2F)[C@H]2C=C[C@@H]1C2` [compound 148, (1R,2R,3S,4S)-N4-(3-Aminocarbonylbicyclo[2.2.1]hept-5-en-2-yl)-N2-(3-chloro-4-trifluoromethoxyphenyl)-5-fluoro-2,4-pyrimidinediamine], for which the IC50 (with A549 (lung carcinoma); in assay [1]) was 1000 to 10000 nM throughout.
With `CN1CCC(Oc2cccc(Nc3ncc(F)c(N[C@H]4[C@@H](C(N)=O)[C@@H]5C=C[C@H]4C5)n3)c2)CC1` [compound 149, (1R,2R,3S,4S)-N4-(3-Aminocarbonylbicyclo[2.2.1]hept-5-en-2-yl)-5-fluoro-N2-[3-(1-methylpiperidin-4-yloxy)phenyl]-2,4-pyrimidinediamine], the IC50 (in the assay on A549 (lung carcinoma); in assay [1]) was at most 100 nM in each case.
`Cc1cc(Nc2ncc(F)c(N[C@H]3[C@@H](C(N)=O)[C@@H]4C=C[C@H]3C4)n2)ccc1OC1CCN(C)CC1` [compound 150, (1R,2R,3S,4S)-N4-(3-Aminocarbonylbicyclo[2.2.1]hept-5-en-2-yl)-5-fluoro-N2-[3-methyl-4-(1-methylpiperidin-4-yloxy)phenyl]-2,4-pyrimidinediamine]: the IC50 (in the assay on A549 (lung carcinoma); in assay [1]) was at most 100 nM each time.
On to `CN1CCC(Oc2ccc(Nc3ncc(F)c(N[C@H]4[C@@H](C(N)=O)[C@@H]5C=C[C@H]4C5)n3)cc2C(F)(F)F)CC1` [compound 151, (1R,2R,3S,4S)-N4-(3-Aminocarbonylbicyclo[2.2.1]hept-5-en-2-yl)-5-fluoro-N2-[4-(1-methylpiperidin-4-yloxy)-3-trifluoromethylphenyl)-2,4-pyrimidinediamine], for which the IC50 (in the assay with A549 (lung carcinoma); in assay [1]) was at most 100 nM throughout.
On to `CN1CCC(Oc2ccc(Nc3ncc(F)c(N[C@H]4[C@@H](C(N)=O)[C@@H]5C=C[C@H]4C5)n3)cc2Cl)CC1` [compound 152, (1R,2R,3S,4S)-N4-(3-Aminocarbonylbicyclo[2.2.1]hept-5-en-2-yl)-N2-[3-chloro-4-(1-methylpiperidin-4-yloxy)phenyl]-5-fluoro-2,4-pyrimidinediamine], for which the IC50 (in the assay on A549 (lung carcinoma); in assay [1]) was at most 100 nM each time.
For the compound `Cc1cc(Nc2ncc(F)c(N[C@H]3[C@@H](C(N)=O)[C@@H]4C=C[C@H]3C4)n2)ccc1OCC1CCN(C)CC1` [compound 153, (1R,2R,3S,4S)-N4-(3-Aminocarbonylbicyclo[2.2.1]hept-5-en-2-yl)-5-fluoro-N2-[4-(1-methylpiperidin-4-ylmethyleneoxy)-3-methylphenyl]-2,4-pyrimidinediamine], the IC50 (with A549 (lung carcinoma); in assay [1]) was at most 100 nM each time.
Take `Cc1cc(Nc2ncc(F)c(N[C@@H]3[C@H](C(N)=O)[C@@H]4C=C[C@H]3C4)n2)ccc1N1CCN(C)CC1` [compound 154]: the IC50 (with A549 (lung carcinoma); in assay [1]) was 100 to 1000 nM in each case.
Turning to `Cc1cc(Nc2ncc(F)c(N[C@H]3[C@@H](C(N)=O)[C@H]4C=C[C@@H]3C4)n2)ccc1N1CCN(C)CC1` [compound 155, (1S,2R,3S,4R)-N4-(3-Aminocarbonylbicyclo[2.2.1]hept-5-en-2-yl)-5-fluoro-N2-[3-methyl-4-(4-methylpiperazin-1-yl)phenyl]-2,4-pyrimidinediamine], the IC50 (with A549 (lung carcinoma); in assay [1]) was 1000 to 10000 nM each time.
For the compound `CN(C)CCN1CCc2cc(Nc3ncc(F)c(N[C@H]4[C@@H](C(N)=O)[C@@H]5C=C[C@H]4C5)n3)ccc21` [compound 186, (1R,2R,3S,4S)-N4-[3-Aminocarbonylbicyclo[2.2.1]hept-5-en-2-yl]-N2-[1-(2-dimethylaminoethyl)-2,3-dihydroindol-5-yl]-5-fluoro-2,4-pyrimidinediamine], the IC50 (in the assay with A549 (lung carcinoma); in assay [1]) was at most 100 nM each time.
In the case of `CN(C)CCN1CCc2cc(Nc3ncc(F)c(N[C@@H]4[C@H](C(N)=O)[C@H]5C=C[C@@H]4C5)n3)ccc21` [compound 187, (1S,2S,3R,4R)-N4-[3-Aminocarbonylbicyclo[2.2.1]hept-5-en-2-yl]-N2-[1-(2-dimethylaminoethyl)-2,3-dihydroindol-5-yl]-5-fluoro-2,4-pyrimidinediamine], the IC50 (with A549 (lung carcinoma); in assay [1]) was 1000 to 10000 nM in each case.
